Reference: article PMC4581228, “Membrane Affinity of Platensimycin and Its Dialkylamine Analogs” (International Journal of Molecular Sciences, 2015)

What was measured:
[1] = system: WT MscS in the cytoplasmic membrane of E. coli; test: Patch-clamp of WT MscS in excised spheroplast patches (activation midpoint shift); details: cytoplasmic addition of 0.6 mM, six independent patches
Source text: We explored the A98S gain-of-function mutant of MscS and found it to be a more suitable sensor. In pressure ramp experiments this mutant activates earlier, but apparently has the same tension dependency of inactivation as WT [20]. […] The serine-for-alanine substitution hydrophilizes the outer portion of the hydrophobic pore. As a result, the remaining hydrophobic region is localized to the cytoplasmic portion of the pore, placing the gate more asymmetrically relative to the mid-plane of the bilayer. […] We tested this mutant against WT with a cytoplasmic addition of 0.6 mM paraben, which has been characterized previously. The typical activation curves (open probability vs. pipette pressure) measured with pipettes of equal size for the two channels are shown in Figure 2. Not only is the absolute shift of activating pressure (p0.5) greater for A98S, but the percentage of midpoint shift relative to the original midpoint averaged for six independent patches was 41% ± 6% for the mutant vs. 14% ± 4% for WT. […]
Spheroplasts were generated as described previously. […] Membrane patches were obtained on borosilicate glass pipettes and recorded at 30 mV pipette voltage set by a microelectrode amplifier. The midpoint of activation for channels in each patch was determined at two-minute intervals for the duration of the experiment via a 1 s ramp of saturating pressure. […]

[2] = system: A98S MscS in the cytoplasmic membrane of E. coli; test: Patch-clamp of A98S MscS in excised spheroplast patches (activation midpoint shift); details: A98S MscS, cytoplasmic addition of 0.6 mM, six independent patches
Description: A pB10b vector was used to house and express the mscS gene in the triple-knockout E. coli strain MJF465 (mscS^−, mscL^−, mscK^−). The A98S MscS mutant, generated and partially characterized previously, was chosen for its higher sensitivity to inner leaflet drug partitioning.
Spheroplasts were generated as described previously. The experimental bath solution contained 400 mM sucrose, 200 mM KCl, 50 mM MgCl2, 5 mM CaCl2, and 5 mM HEPES and was titrated to pH 7.4 with KOH. Membrane patches were obtained on borosilicate glass pipettes and recorded at 30 mV pipette voltage set by a microelectrode amplifier. The midpoint of activation for channels in each patch was determined at two-minute intervals for the duration of the experiment via a 1 s ramp of saturating pressure. Analogs of platensimycin were pre-diluted in either ethanol or bath solution and perfused into the bath to achieve the desired concentration; control injections of equivalent volumes of ethanol had no effect on the midpoint of activation. Negative pressure (suction) was applied with the HSPC-1 high speed pressure clamp apparatus from ALA Scientific. Programming of the pressure protocols and data analysis was performed with the PClamp10 suite (Axon Instr., Foster City, CA, USA). The principle of lateral pressure measurements using two experimental systems, lipid monolayers and patch-clamp, is illustrated in Figure 1.
Similarly, the bulk-membrane partitioning coefficient (Kmem) was estimated from the values of relative increase in MscS activation pressure midpoint (p0.5) measured in patch-clamp experiments at different concentrations of intercalating agents by linear fit of Δp0.5 as a function of log(Cd).

In the case of `CCCCOC(=O)c1ccc(O)cc1` [paraben, butyl paraben, reference compound], the “Percentage of midpoint shift relative to the original midpoint” value [1] was 14% ± 4% and the “Percentage of midpoint shift relative to the original midpoint” value [2] was 41% ± 6%.
